Measured values published in BigSolDB 2.1.

CC(C)=CCOc1c2occc2cc2ccc(=O)oc12
solubility (mole fraction)
Conditions	288.2 K	293.2 K	298.2 K	303.2 K	308.2 K	313.2 K	318.2 K	323.2 K	328.2 K
in ethanol	0.00325	0.00454	0.0063	0.00865	0.0118	0.016	0.0215	0.0288	0.0382
in water	7.4e-07	1.03e-06	1.06e-06	1.03e-06	1.35e-06	1.46e-06	1.5e-06	1.53e-06	1.81e-06
